Assay [1] concerns the target T1, human GR (Homo sapiens, UniProt P04150).
T1 sequence (P04150 1-777): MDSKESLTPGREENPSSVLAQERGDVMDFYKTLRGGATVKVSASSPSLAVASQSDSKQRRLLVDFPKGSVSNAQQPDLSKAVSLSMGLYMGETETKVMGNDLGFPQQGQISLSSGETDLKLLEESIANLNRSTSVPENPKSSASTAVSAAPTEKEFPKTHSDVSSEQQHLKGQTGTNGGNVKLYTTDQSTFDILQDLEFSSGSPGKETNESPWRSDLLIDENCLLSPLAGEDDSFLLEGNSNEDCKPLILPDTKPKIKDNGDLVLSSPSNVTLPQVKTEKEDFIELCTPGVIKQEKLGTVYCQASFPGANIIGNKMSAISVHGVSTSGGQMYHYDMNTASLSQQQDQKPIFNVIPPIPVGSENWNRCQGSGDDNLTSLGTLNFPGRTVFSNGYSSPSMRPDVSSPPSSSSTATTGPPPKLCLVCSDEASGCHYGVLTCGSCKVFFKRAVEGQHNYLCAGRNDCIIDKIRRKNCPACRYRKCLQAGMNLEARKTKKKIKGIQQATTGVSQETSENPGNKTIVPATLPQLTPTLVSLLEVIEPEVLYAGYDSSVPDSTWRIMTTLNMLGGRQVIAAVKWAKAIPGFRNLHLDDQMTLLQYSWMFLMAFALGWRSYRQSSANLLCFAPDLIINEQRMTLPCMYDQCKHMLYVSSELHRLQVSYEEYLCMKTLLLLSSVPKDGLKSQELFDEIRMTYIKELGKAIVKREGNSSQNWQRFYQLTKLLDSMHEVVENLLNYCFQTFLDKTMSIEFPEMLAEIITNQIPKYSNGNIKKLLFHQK
Put plainly: Transrepression Assay (GITAR), TNFα-β-lactamase reporter in U937 cells. Further details: U937 cells contain an endogenous glucocorticoid receptor (GR); endogenous in cells; host or cells: U937 cells stably transfected with the TNF-alpha promoter/beta-lactamase reporter. The conditions noted are these: for GITAR > GRAMM % SEP: GITAR Emax minus GRAMMER Emax; for EC50: U937 cells, inflection point, read-out: Transrepression U937 Cells GITAR IP. It counts as cell-based. An outline of the steps:
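First, U937 reporter cells (TNF-α promoter–β-lactamase, native GR) received compound for 30–45 min at 37 °C. Next, PMA (5 ng/ml) and LPS (100 ng/ml) final were added for about 18 hr. Finally, CCF2-AM loading gave the read-out, with 100 nM dexamethasone as 100%.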

Assay [2] concerns the target T1, human GR. Nature of the assay: Trans-Activation Modulation of Glucocorticoid Receptor (GRAMMER), MMTV-LUC reporter, agonist mode. In kind it is cell-based. More on the design: endogenous in cells. The following applies: for Emax: A549, A549 cells, maximum activity, read-out: Transactivation A549 Cells GRAMMER Emax; for EC50: A549 cells, inflection point, read-out: Transactivation A549 Cells GRAMMER IP. In outline:
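Readout is luciferase from a modified MMTV LTR promoter after 24 h compound exposure alongside 10 nM dexamethasone (100% activity reference), DMSO ≤1%.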

Setting [3] is: U-937, U937 cells, maximum activity, read-out: Transrepression U937 Cells GITAR Emax.
Where [4] appears, read: U-937, activity repressed by 100 nM dexamethasone alone set as 100%, read-out: maximal activity in the transrepression (GITAR) assay.

Where only a bound is given, the exact number is not on record here.

Turning to `COC(=O)c1ccccc1S(=O)(=O)N(C[C@H]1CCC2=Cc3c(cnn3-c3ccc(F)cc3)C[C@@]21C)C[C@H](C)O` [Example 187, methyl 2-({{[(4αR,5S)-1-(4-fluorophenyl)-4α-methyl-1,4,4α,5,6,7-hexahydrocyclopenta[f]indazol-5-yl]methyl}[(2S)-2-hydroxypropyl]amino}sulfonyl)benzoate], the “GITAR > GRAMM % SEP” value at human GR [1] was found to be 35.6%. Moreover, the EC50 came to 392 nM on human GR [1] and 357 nM at human GR [2]. The Emax on human GR [1] (setting [3]) was 71.5%; at human GR [1] (setting [4]), more than 5%; on human GR [2] it was 35.8%.

Regarding `COC(=O)c1ccccc1CS(=O)(=O)N(CCc1ccccc1F)C[C@H]1CCC2=Cc3c(cnn3-c3ccc(F)cc3)C[C@@]21C` [Example 188, methyl 2-{[([2-(2-fluorophenyl)ethyl]{[(4αR,5S)-1-(4-fluorophenyl)-4α-methyl-1,4,4α,5,6,7-hexahydrocyclopenta[f]indazol-5-yl]methyl}amino)sulfonyl]methyl}benzoate], the “GITAR > GRAMM % SEP” value on human GR [1] is 30.1%. The EC50 was 190 nM at human GR [1] and 236 nM at human GR [2]. Further, the Emax at human GR [1] (setting [3]) was 60.5%; on human GR [1] (setting [4]), more than 5%; at human GR [2] it was 30.4%.

As for `COC(=O)c1ccccc1S(=O)(=O)N(CCc1ccccc1F)C[C@H]1CCC2=Cc3c(cnn3-c3ccc(F)cc3)C[C@@]21C` [Example 189, methyl 2-[([2-(2-fluorophenyl)ethyl]{[(4αR,5S)-1-(4-fluorophenyl)-4α-methyl-1,4,4α,5,6,7-hexahydrocyclopenta[f]indazol-5-yl]methyl}amino)sulfonyl]benzoate], the “GITAR > GRAMM % SEP” value at human GR [1] is given as 15.7%. Moreover, the EC50 turned out to be 189 nM on human GR [1] and 152 nM on human GR [2]. For the same molecule, the figures for the Emax at human GR [1] (setting [3]), on human GR [1] (setting [4]) and at human GR [2] were 81%, more than 5% and 65.3%, respectively.

Turning to `C[C@]12Cc3cnn(-c4ccc(F)cc4)c3C=C1CC[C@@H]2CN(CCc1ccccc1F)S(=O)(=O)Cc1ccccc1C(N)=O` [Example 190, 2-{[([2-(2-fluorophenyl)ethyl]{[(4αR,5S)-1-(4-fluorophenyl)-4α-methyl-1,4,4α,5,6,7-hexahydrocyclopenta[f]indazol-5-yl]methyl}amino)sulfonyl]methyl}benzamide], on human GR [1], the “GITAR > GRAMM % SEP” value worked out at 12.4%. Further, the EC50 was 388 nM at human GR [1] and 424 nM at human GR [2]. For the same molecule, the Emax is 77.4% at human GR [1] (setting [3]), more than 5% at human GR [1] (setting [4]) and 65.1% on human GR [2].

For `C[C@]12Cc3cnn(-c4ccc(F)cc4)c3C=C1CC[C@@H]2CN(CC1CCCO1)S(=O)(=O)c1ccc(C(N)=O)cc1` (stereo partly drawn) [Example 191, 4-{[{[(4αR,5S)-1-(4-fluorophenyl)-4α-methyl-1,4,4α,5,6,7-hexahydrocyclopenta[f]indazol-5-yl]methyl}(tetrahydrofuran-2-ylmethyl)amino]sulfonyl}benzamide], the “GITAR > GRAMM % SEP” value on human GR [1] amounted to 10.1%. Further, the EC50 at human GR [1] is 441 nM; on human GR [2], 338 nM. In addition, the values for the Emax on human GR [1] (setting [3]), on human GR [1] (setting [4]) and on human GR [2] were 37.2%, more than 5% and 27.1%, respectively.

Take `C[C@]12Cc3cnn(-c4ccc(F)cc4)c3C=C1CC[C@@H]2CN(Cc1ccccc1F)S(=O)(=O)c1cccc(C(N)=O)c1` [Example 192, 3-[((2-fluorobenzyl){[(4αR,5S)-1-(4-fluorophenyl)-4α-methyl-1,4,4α,5,6,7-hexahydrocyclopenta[f]indazol-5-yl]methyl}amino)sulfonyl]benzamide]: the “GITAR > GRAMM % SEP” value at human GR [1] turned out to be 23.2%. Further, the EC50 on human GR [1] worked out at 2910 nM; at human GR [2], 170 nM. Further, the Emax at human GR [1] (setting [3]) was 27.5%; on human GR [1] (setting [4]) it was more than 5%; on human GR [2] it was 4.3%.

`C[C@]12Cc3cnn(-c4ccc(F)cc4)c3C=C1CC[C@@H]2CN(CCCc1ccccc1)S(=O)(=O)CC(F)(F)F` [Example 193, 2,2,2-trifluoro-N-{[(4αR,5S)-1-(4-fluorophenyl)-4α-methyl-1,4,4α,5,6,7-hexahydrocyclopenta[f]indazol-5-yl]methyl}-N-(3-phenylpropyl)ethanesulfonamide]: on human GR [1], the “GITAR > GRAMM % SEP” value is 18.6%. Also, the EC50 at human GR [1] was 170 nM; on human GR [2], 303 nM. Also, the Emax at human GR [1] (setting [3]) is 74%; at human GR [1] (setting [4]) it was more than 5%; at human GR [2], 55.4%.

As to `Cc1noc(C)c1S(=O)(=O)N(CCCc1ccccc1)C[C@H]1CCC2=Cc3c(cnn3-c3ccc(F)cc3)C[C@@]21C` [Example 194, N-{[(4αR,5S)-1-(4-fluorophenyl)-4α-methyl-1,4,4α,5,6,7-hexahydrocyclopenta[f]indazol-5-yl]methyl}-3,5-dimethyl-N-(3-phenylpropyl)isoxazole-4-sulfonamide], on human GR [1], the “GITAR > GRAMM % SEP” value turned out to be 14.4%. Further, the figures for the EC50 on human GR [1] and on human GR [2] were 291 nM and 517 nM, respectively. In addition, the figures for the Emax at human GR [1] (setting [3]), at human GR [1] (setting [4]) and at human GR [2] were 56.2%, more than 5% and 41.9%, respectively.

Take `C[C@]12Cc3cnn(-c4ccc(F)cc4)c3C=C1CC[C@@H]2CN(CCCc1ccccc1)S(=O)(=O)c1ccccc1F` [Example 195, 2-fluoro-N-{[(4αR,5S)-1-(4-fluorophenyl)-4α-methyl-1,4,4α,5,6,7-hexahydrocyclopenta[f]indazol-5-yl]methyl}-N-(3-phenylpropyl)benzenesulfonamide]: on human GR [1], the “GITAR > GRAMM % SEP” value is given as 17.1%. The EC50 at human GR [1] was 486 nM; at human GR [2] it was 542 nM. Besides, the Emax at human GR [1] (setting [3]) is 30%; on human GR [1] (setting [4]), more than 5%; on human GR [2], 12.9%.

As for `C[C@]12Cc3cnn(-c4ccc(F)cc4)c3C=C1CC[C@@H]2CN(CCc1ccccn1)S(=O)(=O)Cc1ccccc1C(N)=O` [Example 196, 2-({[{[(4αR,5S)-1-(4-fluorophenyl)-4α-methyl-1,4,4α,5,6,7-hexahydrocyclopenta[f]indazol-5-yl]methyl}(2-pyridin-2-ylethyl)amino]sulfonyl}methyl)benzamide], the “GITAR > GRAMM % SEP” value on human GR [1] is 3.7%. Besides, the figures for the EC50 on human GR [1] and on human GR [2] were 387 nM and 552 nM, respectively. Further, the figures for the Emax at human GR [1] (setting [3]), on human GR [1] (setting [4]) and at human GR [2] were 40.3%, more than 5% and 36.6%, respectively.

Take `CC([C@H]1CCC2=Cc3c(cnn3-c3ccc(F)cc3)C[C@@]21C)N(CCc1ccccn1)S(=O)(=O)Cc1cccnc1` (stereo partly drawn) [Example 197, N-{1-[(4αR)-1-(4-fluorophenyl)-4α-methyl-1,4,4α,5,6,7-hexahydrocyclopenta[f]indazol-5-yl]ethyl}-1-pyridin-3-yl-N-(2-pyridin-2-ylethyl)methanesulfonamide]: the “GITAR > GRAMM % SEP” value on human GR [1] amounted to 1.8%. Besides, the EC50 came to 1040 nM at human GR [1] and 769 nM on human GR [2]. Moreover, the Emax on human GR [1] (setting [3]) was 45.5%; at human GR [1] (setting [4]), more than 5%; at human GR [2] it was 43.7%.

On to `C[C@]12Cc3cnn(-c4ccc(F)cc4)c3C=C1CC[C@@H]2CN(CCO)S(=O)(=O)Cc1ccccc1C(N)=O` [Example 198, 2-({[{[(4αR,5S)-1-(4-fluorophenyl)-4α-methyl-1,4,4α,5,6,7-hexahydrocyclopenta[f]indazol-5-yl]methyl}(2-hydroxyethyl)amino]sulfonyl}methyl)benzamide], for which the “GITAR > GRAMM % SEP” value at human GR [1] turned out to be 7.3%. In addition, the EC50 on human GR [1] is 1150 nM; at human GR [2] it was 1230 nM. The Emax at human GR [1] (setting [3]) was 15.5%; on human GR [1] (setting [4]) it was more than 5%; at human GR [2], 8.2%.

Take `CC(C)(O)CN(C[C@H]1CCC2=Cc3c(cnn3-c3ccc(F)cc3)C[C@@]21C)S(=O)(=O)c1ccccc1F` [Example 199, 2-fluoro-N-{[(4αR,5S)-1-(4-fluorophenyl)-4α-methyl-1,4,4α,5,6,7-hexahydrocyclopenta[f]indazol-5-yl]methyl}-N-(2-hydroxy-2-methylpropyl)benzenesulfonamide]: the “GITAR > GRAMM % SEP” value on human GR [1] was determined as 22.2%. For the same molecule, the EC50 at human GR [1] was determined as 506 nM; at human GR [2], 96.8 nM. Moreover, the figures for the Emax at human GR [1] (setting [3]), at human GR [1] (setting [4]) and on human GR [2] were 80.8%, more than 5% and 58.6%, respectively.

The values are drawn from patent US8299048B2, “Hexahydrocyclopentyl[f]indazole sulfonamides and derivatives thereof as selective glucocorticoid receptor modulators” (Merck Sharp & Dohme Corp., priority 2008, dated 2012).
